How the values were obtained:
Assay in all cases: KINOMEscan kinase binding assay
[1] = molecular target: T1, 384 kinases from the human genome (Homo sapiens, UniProt P11309); details: kinase PIM1 (Entrez PIM1)
T1 construct: purchased Eurofin/DiscoverX
In short: (§1)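 Competition binding (KINOMEscan) across 384 human kinases with compound at 10 µM. Ligand binding was expressed relative to DMSO (100%) as the average of duplicates from one experiment. S(10) selectivity score was derived.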

[2] = molecular target: T2, 384 kinases from the human genome (Homo sapiens, UniProt Q9NRM7); details: kinase LATS2 (Entrez LATS2)
T2 construct: purchased Eurofin/DiscoverX
T2 sequence (Q9NRM7 whole entry): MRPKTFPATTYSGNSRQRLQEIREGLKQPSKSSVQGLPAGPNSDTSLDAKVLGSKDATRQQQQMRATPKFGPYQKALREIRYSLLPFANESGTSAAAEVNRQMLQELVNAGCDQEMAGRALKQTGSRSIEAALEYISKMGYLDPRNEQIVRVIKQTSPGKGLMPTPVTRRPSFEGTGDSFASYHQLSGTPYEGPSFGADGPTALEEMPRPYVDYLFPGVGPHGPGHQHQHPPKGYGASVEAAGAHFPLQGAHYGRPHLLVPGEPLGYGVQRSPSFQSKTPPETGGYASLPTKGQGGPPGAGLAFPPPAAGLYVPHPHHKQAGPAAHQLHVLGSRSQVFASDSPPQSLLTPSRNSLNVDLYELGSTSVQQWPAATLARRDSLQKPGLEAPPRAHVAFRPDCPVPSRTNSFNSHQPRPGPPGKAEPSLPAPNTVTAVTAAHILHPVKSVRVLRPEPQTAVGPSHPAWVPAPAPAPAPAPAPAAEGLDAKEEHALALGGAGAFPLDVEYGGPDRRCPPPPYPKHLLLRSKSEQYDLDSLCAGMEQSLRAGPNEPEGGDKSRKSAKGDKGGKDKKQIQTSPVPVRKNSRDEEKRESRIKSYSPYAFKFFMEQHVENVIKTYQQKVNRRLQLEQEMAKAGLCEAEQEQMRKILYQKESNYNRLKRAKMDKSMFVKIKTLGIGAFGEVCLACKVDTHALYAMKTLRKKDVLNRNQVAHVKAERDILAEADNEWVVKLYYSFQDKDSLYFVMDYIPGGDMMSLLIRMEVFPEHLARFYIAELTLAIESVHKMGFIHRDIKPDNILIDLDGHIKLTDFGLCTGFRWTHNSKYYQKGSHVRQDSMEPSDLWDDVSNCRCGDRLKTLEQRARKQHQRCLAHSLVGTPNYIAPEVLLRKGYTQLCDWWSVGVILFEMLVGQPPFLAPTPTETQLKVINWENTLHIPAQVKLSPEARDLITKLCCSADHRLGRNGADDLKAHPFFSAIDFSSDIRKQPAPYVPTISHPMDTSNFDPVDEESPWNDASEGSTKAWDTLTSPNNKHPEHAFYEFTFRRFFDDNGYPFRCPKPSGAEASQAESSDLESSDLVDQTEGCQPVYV
In short: as §1

[3] = molecular target: T3, 384 kinases from the human genome (Homo sapiens, UniProt P48730); details: kinase CSNK1D (Entrez CSNK1D)
T3 construct: purchased Eurofin/DiscoverX
In short: as §1

[4] = molecular target: T4, 384 kinases from the human genome (Homo sapiens, UniProt Q59H18); details: kinase TNNI3K (Entrez TNNI3K)
T4 construct: purchased Eurofin/DiscoverX
In short: as §1

[5] = molecular target: T5, 384 kinases from the human genome (Homo sapiens, UniProt P53667); details: kinase LIMK1 (Entrez LIMK1)
T5 construct: purchased Eurofin/DiscoverX
In short: as §1

[6] = molecular target: T6, 384 kinases from the human genome (Homo sapiens, UniProt P23443); details: kinase S6K1 (Entrez RPS6KB1)
T6 construct: purchased Eurofin/DiscoverX
In short: as §1

[7] = molecular target: T7, 384 kinases from the human genome (Homo sapiens, UniProt Q02156); details: kinase PRKCE (Entrez PRKCE)
T7 construct: purchased Eurofin/DiscoverX
In short: as §1

[8] = molecular target: T8, 384 kinases from the human genome (Homo sapiens, UniProt Q13554); details: kinase CAMK2B (Entrez CAMK2B)
T8 construct: purchased Eurofin/DiscoverX
In short: as §1

[9] = molecular target: T9, 384 kinases from the human genome (Homo sapiens, UniProt Q8IYT8); details: kinase ULK2 (Entrez ULK2)
T9 construct: purchased Eurofin/DiscoverX
T9 sequence (Q8IYT8 whole entry): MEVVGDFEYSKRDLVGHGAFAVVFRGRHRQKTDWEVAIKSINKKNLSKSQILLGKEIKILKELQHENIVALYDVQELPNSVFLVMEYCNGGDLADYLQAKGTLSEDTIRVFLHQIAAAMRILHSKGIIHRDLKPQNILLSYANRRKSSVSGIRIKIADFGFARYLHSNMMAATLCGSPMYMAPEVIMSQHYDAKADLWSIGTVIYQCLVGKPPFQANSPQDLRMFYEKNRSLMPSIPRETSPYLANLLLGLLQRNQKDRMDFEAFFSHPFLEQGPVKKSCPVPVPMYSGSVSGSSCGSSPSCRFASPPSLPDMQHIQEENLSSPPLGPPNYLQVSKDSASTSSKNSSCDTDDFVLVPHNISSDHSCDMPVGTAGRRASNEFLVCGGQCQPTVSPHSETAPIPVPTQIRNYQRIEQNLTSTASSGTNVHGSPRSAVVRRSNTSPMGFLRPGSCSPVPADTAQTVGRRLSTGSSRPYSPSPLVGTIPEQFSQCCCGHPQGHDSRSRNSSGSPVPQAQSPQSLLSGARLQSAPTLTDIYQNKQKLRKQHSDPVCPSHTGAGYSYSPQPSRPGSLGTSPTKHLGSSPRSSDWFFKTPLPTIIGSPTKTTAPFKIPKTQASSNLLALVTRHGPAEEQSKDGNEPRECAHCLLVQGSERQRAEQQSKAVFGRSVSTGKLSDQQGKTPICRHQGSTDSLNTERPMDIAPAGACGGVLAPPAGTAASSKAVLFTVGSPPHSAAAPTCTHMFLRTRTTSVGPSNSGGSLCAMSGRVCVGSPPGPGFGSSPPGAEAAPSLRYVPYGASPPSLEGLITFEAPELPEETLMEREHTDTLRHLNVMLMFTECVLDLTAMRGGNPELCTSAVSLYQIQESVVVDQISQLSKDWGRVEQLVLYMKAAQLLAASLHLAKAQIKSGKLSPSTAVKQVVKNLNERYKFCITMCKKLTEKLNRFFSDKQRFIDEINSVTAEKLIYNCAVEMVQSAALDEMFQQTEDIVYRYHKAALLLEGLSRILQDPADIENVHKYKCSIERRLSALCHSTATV
In short: as §1

[10] = molecular target: T10, 384 kinases from the human genome (Homo sapiens, UniProt Q14680); details: kinase MELK (Entrez MELK)
T10 construct: purchased Eurofin/DiscoverX
T10 sequence (Q14680 whole entry): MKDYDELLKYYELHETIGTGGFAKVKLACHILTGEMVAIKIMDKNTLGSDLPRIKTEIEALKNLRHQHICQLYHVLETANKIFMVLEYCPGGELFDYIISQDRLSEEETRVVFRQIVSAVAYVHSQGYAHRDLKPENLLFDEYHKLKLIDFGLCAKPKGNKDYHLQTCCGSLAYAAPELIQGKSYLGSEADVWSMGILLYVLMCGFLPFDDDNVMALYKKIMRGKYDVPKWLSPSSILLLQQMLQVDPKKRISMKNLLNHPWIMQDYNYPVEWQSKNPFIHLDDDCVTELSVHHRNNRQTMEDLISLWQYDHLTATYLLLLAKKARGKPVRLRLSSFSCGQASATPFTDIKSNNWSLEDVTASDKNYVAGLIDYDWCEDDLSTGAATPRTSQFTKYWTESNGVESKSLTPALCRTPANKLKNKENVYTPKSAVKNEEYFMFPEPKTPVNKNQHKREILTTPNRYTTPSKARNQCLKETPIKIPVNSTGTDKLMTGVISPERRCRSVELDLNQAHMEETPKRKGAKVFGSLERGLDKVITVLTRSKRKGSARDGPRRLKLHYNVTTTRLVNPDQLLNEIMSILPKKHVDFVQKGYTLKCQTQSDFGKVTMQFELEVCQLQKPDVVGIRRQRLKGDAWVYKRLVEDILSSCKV
In short: as §1

[11] = molecular target: T11, 384 kinases from the human genome (Homo sapiens, UniProt Q6PHR2); details: kinase ULK3 (Entrez ULK3)
T11 construct: purchased Eurofin/DiscoverX
In short: as §1

[12] = molecular target: T12, 384 kinases from the human genome (Homo sapiens, UniProt Q96D53); details: kinase ADCK4 (Entrez ADCK4)
T12 construct: purchased Eurofin/DiscoverX
T12 sequence (Q96D53 whole entry): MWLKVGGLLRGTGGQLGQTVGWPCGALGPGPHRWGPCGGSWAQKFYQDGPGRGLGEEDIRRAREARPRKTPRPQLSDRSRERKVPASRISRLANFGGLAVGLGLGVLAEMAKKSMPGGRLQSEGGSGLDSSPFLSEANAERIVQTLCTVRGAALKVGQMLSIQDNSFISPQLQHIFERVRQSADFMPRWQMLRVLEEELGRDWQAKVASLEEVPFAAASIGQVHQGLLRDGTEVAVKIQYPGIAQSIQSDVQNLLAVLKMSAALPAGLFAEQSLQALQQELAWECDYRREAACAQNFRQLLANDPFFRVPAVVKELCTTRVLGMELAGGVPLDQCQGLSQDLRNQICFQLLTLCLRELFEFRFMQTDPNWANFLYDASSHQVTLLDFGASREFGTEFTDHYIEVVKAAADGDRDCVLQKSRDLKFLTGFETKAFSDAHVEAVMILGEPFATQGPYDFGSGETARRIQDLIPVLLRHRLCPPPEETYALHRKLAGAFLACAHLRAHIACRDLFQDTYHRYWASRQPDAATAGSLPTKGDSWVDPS
In short: as §1

[13] = molecular target: T13, 384 kinases from the human genome (Homo sapiens, UniProt Q9H3Y6); details: kinase SRMS (Entrez SRMS)
T13 construct: purchased Eurofin/DiscoverX
In short: as §1

[14] = molecular target: T14, 384 kinases from the human genome (Homo sapiens, UniProt Q9P0L2); details: kinase MARK1 (Entrez MARK1)
T14 construct: purchased Eurofin/DiscoverX
In short: as §1

[15] = molecular target: T15, 384 kinases from the human genome (Homo sapiens, UniProt P19784); details: kinase CSNK2A2 (Entrez CSNK2A2)
T15 construct: purchased Eurofin/DiscoverX
In short: as §1

[16] = molecular target: T16, 384 kinases from the human genome (Homo sapiens, UniProt Q8NEB9); details: kinase VPS34 (Entrez PIK3C3)
T16 construct: purchased Eurofin/DiscoverX
In short: as §1

[17] = molecular target: T17, 384 kinases from the human genome (Homo sapiens, UniProt P51813); details: kinase BMX (Entrez BMX)
T17 construct: purchased Eurofin/DiscoverX
T17 sequence (P51813 whole entry): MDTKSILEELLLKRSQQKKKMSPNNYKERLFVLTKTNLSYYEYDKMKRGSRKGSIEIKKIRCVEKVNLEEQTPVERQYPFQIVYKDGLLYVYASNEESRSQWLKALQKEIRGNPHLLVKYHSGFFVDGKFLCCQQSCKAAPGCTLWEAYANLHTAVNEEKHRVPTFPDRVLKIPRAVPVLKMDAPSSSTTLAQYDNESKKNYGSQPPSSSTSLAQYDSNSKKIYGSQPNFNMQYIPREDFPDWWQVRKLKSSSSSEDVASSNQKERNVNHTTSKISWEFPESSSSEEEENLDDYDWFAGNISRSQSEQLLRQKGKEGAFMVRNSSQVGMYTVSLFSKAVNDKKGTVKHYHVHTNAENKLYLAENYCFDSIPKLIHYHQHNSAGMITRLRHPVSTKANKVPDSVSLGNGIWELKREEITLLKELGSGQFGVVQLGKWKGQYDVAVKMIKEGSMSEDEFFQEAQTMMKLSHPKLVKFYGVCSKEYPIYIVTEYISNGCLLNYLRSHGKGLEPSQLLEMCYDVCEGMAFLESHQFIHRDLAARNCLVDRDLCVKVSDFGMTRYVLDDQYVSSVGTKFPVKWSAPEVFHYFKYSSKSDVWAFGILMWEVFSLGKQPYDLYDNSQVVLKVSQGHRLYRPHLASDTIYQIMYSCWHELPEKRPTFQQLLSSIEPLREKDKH
In short: as §1

[18] = molecular target: T18, 384 kinases from the human genome (Homo sapiens, UniProt Q8NEV4); details: kinase MYO3A (Entrez MYO3A)
T18 construct: purchased Eurofin/DiscoverX
In short: as §1

[19] = molecular target: T19, 384 kinases from the human genome (Homo sapiens, UniProt O96013); details: kinase PAK4 (Entrez PAK4)
T19 construct: purchased Eurofin/DiscoverX
In short: as §1

[20] = molecular target: T20, 384 kinases from the human genome (Homo sapiens, UniProt Q32MK0); details: kinase MLCK (Entrez MYLK3)
T20 construct: purchased Eurofin/DiscoverX
In short: as §1

[21] = molecular target: T21, 384 kinases from the human genome (Homo sapiens, UniProt P35590); details: kinase TIE1 (Entrez TIE1)
T21 construct: purchased Eurofin/DiscoverX
In short: as §1

[22] = molecular target: T22, 384 kinases from the human genome (Homo sapiens, UniProt Q14164); details: kinase IKK-epsilon (Entrez IKBKE)
T22 construct: purchased Eurofin/DiscoverX
In short: as §1

[23] = molecular target: T23, 384 kinases from the human genome (Homo sapiens, UniProt O94768); details: kinase DRAK2 (Entrez STK17B)
T23 construct: purchased Eurofin/DiscoverX
In short: as §1

[24] = molecular target: T24, 384 kinases from the human genome (Homo sapiens, UniProt Q9H2G2); details: kinase SLK (Entrez SLK)
T24 construct: purchased Eurofin/DiscoverX
In short: as §1

[25] = molecular target: T25, 384 kinases from the human genome (Homo sapiens, UniProt P48729); details: kinase CSNK1A1 (Entrez CSNK1A1)
T25 construct: purchased Eurofin/DiscoverX
In short: as §1

[26] = molecular target: T26, 384 kinases from the human genome (Homo sapiens, UniProt Q05397); details: kinase FAK (Entrez PTK2)
T26 construct: purchased Eurofin/DiscoverX
T26 sequence (Q05397 whole entry): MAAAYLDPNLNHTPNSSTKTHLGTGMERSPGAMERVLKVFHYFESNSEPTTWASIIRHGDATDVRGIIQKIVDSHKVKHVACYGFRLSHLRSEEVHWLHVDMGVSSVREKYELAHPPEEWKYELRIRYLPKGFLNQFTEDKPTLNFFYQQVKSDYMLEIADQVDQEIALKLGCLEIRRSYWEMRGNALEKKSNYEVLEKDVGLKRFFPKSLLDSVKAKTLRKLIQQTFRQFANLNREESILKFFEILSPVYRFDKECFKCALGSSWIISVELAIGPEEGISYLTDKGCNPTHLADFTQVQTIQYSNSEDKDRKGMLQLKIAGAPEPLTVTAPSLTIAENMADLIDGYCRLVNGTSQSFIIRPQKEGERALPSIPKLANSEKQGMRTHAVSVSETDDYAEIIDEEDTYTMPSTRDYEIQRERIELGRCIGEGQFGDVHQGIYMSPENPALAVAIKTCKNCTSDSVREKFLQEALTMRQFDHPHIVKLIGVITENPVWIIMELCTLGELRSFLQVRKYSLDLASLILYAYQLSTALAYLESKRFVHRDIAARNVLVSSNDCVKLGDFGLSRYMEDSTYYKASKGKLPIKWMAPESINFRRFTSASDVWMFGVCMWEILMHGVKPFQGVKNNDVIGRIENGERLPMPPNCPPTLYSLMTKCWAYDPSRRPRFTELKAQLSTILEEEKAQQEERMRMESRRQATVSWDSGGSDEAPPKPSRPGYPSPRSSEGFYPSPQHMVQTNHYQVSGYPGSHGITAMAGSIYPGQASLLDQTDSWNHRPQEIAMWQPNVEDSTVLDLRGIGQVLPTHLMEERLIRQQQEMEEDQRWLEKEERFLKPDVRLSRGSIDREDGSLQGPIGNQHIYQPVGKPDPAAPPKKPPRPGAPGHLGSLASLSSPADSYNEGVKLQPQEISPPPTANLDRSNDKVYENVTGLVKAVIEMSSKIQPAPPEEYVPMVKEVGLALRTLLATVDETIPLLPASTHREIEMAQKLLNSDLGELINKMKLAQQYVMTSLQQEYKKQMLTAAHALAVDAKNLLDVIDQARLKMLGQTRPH
In short: as §1

## CC(C)C(=O)N1CCN(c2ccc(NC(=O)c3cc4ccccc4o3)cc2Cl)CC1 [Compound 21]
[1]
  Percent Control: 96%
[2]
  Percent Control: 98%
[3]
  Percent Control: 86%
[4]
  Percent Control: 70%
[5]
  Percent Control: 79%
[6]
  Percent Control: 94%
[7]
  Percent Control: 99%
[8]
  Percent Control: 100%
[9]
  Percent Control: 95%
[10]
  Percent Control: 29%
[11]
  Percent Control: 87%
[12]
  Percent Control: 77%
[13]
  Percent Control: 100%
[14]
  Percent Control: 93%
[15]
  Percent Control: 92%
[16]
  Percent Control: 100%
[17]
  Percent Control: 68%
[18]
  Percent Control: 89%
[19]
  Percent Control: 100%
[20]
  Percent Control: 90%
[21]
  Percent Control: 100%
[22]
  Percent Control: 100%
[23]
  Percent Control: 94%
[24]
  Percent Control: 100%
[25]
  Percent Control: 88%
[26]
  Percent Control: 100%

Source: publication PMC8333425, “Discovery of a dual Ras and ARF6 inhibitor from a GPCR endocytosis screen” (Nature Communications, 2021)
